From PMC5068545, “Glycan Specificity of P[19] Rotavirus and Comparison with Those of Related P Genotypes” (Journal of Virology, 2016)

Assays:
[1] = target: T1, P[4] VP8* (Human rotavirus (SEROTYPE 2 / STRAIN DS1), UniProt P11196); experiment: ELISA-based oligosaccharide binding; conditions: GST-VP8*; labelled compound (biotin conjugate, multivalent); weak signal
T1 construct: VP8* domain of spike polyprotein VP4; GST fusion from E. coli BL21; DS1 is only the modelling template
Text: ELISA-based oligosaccharide binding on P[4] […] RVs

[2] = target: T2, P[19] VP8* (Human rotavirus A, UniProt A7YCM0); experiment: ELISA-based oligosaccharide binding; conditions: GST-VP8*; labelled compound (biotin conjugate, multivalent); weak signal
T2 construct: gene VP4; VP8* domain (aa 46-231) of spike polyprotein VP4; E. coli BL21 GST fusion; GST cut with thrombin for NMR, kept in ELISA and glycan array
Text: ELISA-based oligosaccharide binding on P[19] […] RVs recognized LNFPI and LNT | Low binding signals were detected for all four P[II] RVs

[3] = target: T3, P[8] VP8* (Human rotavirus A, UniProt A0A509GLV6); experiment: ELISA-based oligosaccharide binding; conditions: GST-VP8*; labelled compound (biotin conjugate, multivalent); weak signal
T3 construct: VP8* domain of spike polyprotein VP4; GST fusion from E. coli BL21
Text: ELISA-based oligosaccharide binding on P[8] […] RVs

[4] = target: T2, P[19] VP8*; experiment: 1H-15N HSQC NMR titration; format: binding; conditions: 20°C, pH 8.0, 10 mM Tris-HCl, 100 mM NaCl; 0.25 mM 15N-labelled VP8*, GST removed
Text: 1H-15N HSQC NMR titration on P[19]

Row | SMILES | ELISA-based oligosaccharide binding [1] | ELISA-based oligosaccharide binding [2] | ELISA-based oligosaccharide binding [3] | Kd [4]
1 | CC(=O)N[C@H]1C(O)O[C@H](CO)[C@@H](O)[C@@H]1O[C@@H]1O[C@H](CO)[C@H](O)[C@H](O)[C@H]1O (stereo partly shown) [lacto-N-biose, Galβ1-3GlcNAc] | Low binding signals were detected for all four P[II] RVs | Low binding signals were detected for all four P[II] RVs | Low binding signals were detected for all four P[II] RVs | –
2 | CC(=O)N[C@H]1[C@H](O[C@H]2[C@@H](O)[C@@H](CO)O[C@@H](O[C@H]3[C@H](O)[C@@H](O)C(O)O[C@@H]3CO)[C@@H]2O)O[C@H](CO)[C@@H](O)[C@@H]1O[C@@H]1O[C@H](CO)[C@H](O)[C@H](O)[C@H]1O[C@@H]1O[C@@H](C)[C@@H](O)[C@@H](O)[C@@H]1O (stereo partly shown) [LNFPI, Fucα1-2Galβ1-3GlcNAcβ1-3Galβ1-4Glc] | – | – | – | 2.6 mM
